Non-standard residues stand in square brackets, D forms with d. pGlu = O=C1CC[C@@H](C(=O)O)N1
What was measured:
Type in all cases: cell-based, human
[1] = tested on: gluten-reactive T cells; test: 96-well plate whole blood cytokine release, IFNγ by MAGPIX multiplex bead assay; conditions: for Percent of maximal response to individual gluten peptides, IFNg: after oral gluten challenge; for IFNγ WB MAGPIX % max Mean: n = 8, blood after oral gluten challenge, individual peptides 5 μM (Peptide 2* of P14, Pepscan: 10 μg/mL (5.45 μM))
[2] = tested on: gluten-reactive T cells; test: Cytokine release assays taken together (IFNγ ELISpot, whole blood IFNγ and IP-10, in-tube IFNγ ELISA); conditions: HLA-DQ2.5+ celiac disease subjects after gluten challenge
Description: Gluten peptide solutions for addition to whole blood were arranged according to standardized templates in sterile 96-well U-bottom plates (30 μL/well). Plates were sealed with adhesive ELISA plate cover slips before the plastic lid was replaced and being frozen at −80° C. Whole blood assay (WBA) “medium” (1% DMSO in 90% PBS and 9% normal saline), mitogen (PHA-L, Sigma-Aldrich #L2769; St Louis Mo.) 100 μg/ml in WBA medium, and CEF diluted to 10 μg/ml in PBS with a final concentration of 1% DMSO were frozen separately in sterile cryovials. 96-well plates and cryovials with frozen incubation solutions were shipped on dry ice to the clinical site where blood was collected and incubations performed. Solutions were thawed at room temperature for 10 min just before being added to whole blood. 96-well plates were thawed while being centrifuged at 300 g to avoid surface condensation. A multi-channel pipette was used to efficiently transfer 25 μL of peptide solutions from the original 96-well plate to corresponding wells in a fresh sterile 96-well U-bottom plate. Once incubation solutions had been added, 225 μL of whole blood was added to each well and the plate transferred to incubate for 24 h at 37° C. 5% CO2. […] Individual peptides were incubated at a final assay concentration of 51.1M. Final concentrations of individual peptides assessed in P3 was 0.05-50 μg/mL, and in P14 and P13 pools 0.025-25 μM. The P71 pool was tested at between 0.005-10 pg/mL, the highest tested concentration being the maximal possible not exceeding 0.1% DMSO. Peptide pools, mitogen, and medium only were assessed in triplicate wells, and on Day-6 individual peptides were assessed in duplicate wells. Incubations were terminated after 24 h, and 96-well plates centrifuged at 300 g for 10 min. A total of approximately 90 to 120 μL of plasma was removed from each well taking care to avoid red cell contamination, and transferred into corresponding wells of two further 96-well plates (one with 30 μL/well and the residual in the second plate). Plasmas were frozen at −80° C. and later shipped on dry ice to the central lab where IP-10 and IFNγ multiplex bead assays were performed according to manufacturer's instructions using 25 μL plasma per well (Milliplex® MAP Human Cytokine/Chemokine Magnetic Bead Panel #HCYTOMAG-60k-02; EMD Millipore Corp., Billerica, Mass. 01821) and analysed with the Luminex® MAGPIX® System xPONENT® software (Luminex Corporation, Austin Tex. 78727). Plasma cytokine levels for each assay condition were expressed as the mean analyte concentration of each of the three replicate incubations. Laboratory staff were unaware of the arrangement of peptide solutions incubated with during assay setup and plate counting.
Aliquots of PBS, P3 peptides diluted in PBS (final concentration in blood 3× 50 or CEF to a final concentration 1 μg/mL were prepared in sterile cryovials (0.11 mL/vial) and stored frozen (−80° C.) until immediately before use. P3, CEF and two PBS aliquots were drawn up in separate sterile 0.3 mL insulin syringes with attached 29G×½″ needle (Terumo, SS*30M2913; Elkton Md. 21921). P3, CEF and one PBS aliquot was injected through the stoppers of three separate QuantiFERON® NIL tubes already containing 1 mL blood, and one aliquot of PBS was injected into a QuantiFERON® MITOGEN tube already containing 1 mL blood. All four tubes containing blood and incubation solution were gently inverted ten-times and transferred to incubate at 37° C. 5% CO2. After for 24 h, tubes were centrifuged 300 g 10 min. Plasma was separated and equal volumes placed in two 1.5 mL cryovials. Frozen plasmas were transferred to the central lab where IFNγ levels were measured in triplicate 50 μL samples by ELISA (MABtech Human IFN-γ ELISA development kit HRP, 3420-1H-6; capture mAb 1-D1K). […]

[3] = tested on: gluten-reactive T cells; test: Overnight IFNγ ELISpot assay with fresh PBMC; conditions: for Percent of maximal response to individual gluten peptides, ELISp: after oral gluten challenge; for IFNγ ELISpot % max Mean: n = 5, blood after oral gluten challenge, individual peptides 5 μM (Peptide 2* of P14, Pepscan: 10 μg/mL (5.45 μM))
Description: HLA-DQ2.5-positive celiac disease subjects on gluten-free diet were used in this study. Blood was collected immediately before and 6 days after commencing 3-day oral gluten challenge. Whole blood or PBMCs were incubated with pools or single peptides derived from gluten or recall antigens. IFNγ and IP-10 levels were measured in plasma from the whole blood that was incubated in 96-well plates with peptides or peptide pools. Plasma cytokine/chemokine levels were measured by MAGPIX® multiplex bead assay (IFNγ and IP-10) or by ELISA (IFNγ and IP-10), and PBMC separated from the same blood sample were incubated in overnight IFNγ ELISpot assays.
Overnight IFNγ ELISpot assays (Human IFN-γ ELISpotPRO kit, transparent, ALP; Mabtech AB, #3420-2APT-10) were performed using PBMC freshly separated from heparinized blood diluted 1:1 in PBS with 2% fetal bovine serum (Stemcell Technologies #07905; Vancouver, BC, V5Z 1B3, Canada) overlaid on density gradient medium (Ficoll-Paque™ PLUS; GE Healthcare Lice Sciences #:17-1440-02) in SepMate™-50 tubes (Stemcell Technologies #15460). PBMC (8 million/mL) were resuspended in serum-free medium with gentamicin and phenol red (X-VIVO™15; Lonza, Walkersville Mass. 21793). PBMC (0.4 million/50 pt/well) and incubated with 50 μL 80% X-vivo15, 0.2% DMSO and 20% PBS in three triplicate wells (“medium only”), or with 50 μL PHA-L 20 μg/ml or peptide at 2× final concentration in 80% X-vivo15, 0.2% DMSO and 20% PBS. Peptide solutions to be added to individual ELISpot wells were prepared in 96-well U-bottom plates (60 pt/well) that were then sealed with adhesive ELISA plate cover slips before replacing the plastic lid and being frozen at −80° C. 96-well plates containing peptide solutions were thawed at room temperature for 10 min while being centrifuged at 300 g immediately prior to being added to ELISpot wells. Peptide pools and mitogen were assessed in triplicate wells, and individual peptides were assessed in duplicate wells. X-VIVO™15 (50 μL) was incubated with 80% X-vivo15, 0.2% DMSO and 20% PBS (50 μL) in triplicate wells (“no PBMC” control). A Zeiss automated ELISpot counter was used to determine spot forming units (SFU) per well (Zellnet Inc., Fort Lee, N J 07024). Laboratory staff were unaware of the arrangement of peptide solutions in ELISpot wells during assay setup and plate counting.

[4] = tested on: gluten-reactive T cells; test: 96-well plate whole blood cytokine release, IP-10 by MAGPIX multiplex bead assay; conditions: for Percent of maximal response to individual gluten peptides, IP-10: after oral gluten challenge; for IP-10 WB MAGPIX % max Mean: n = 10, blood after oral gluten challenge, individual peptides 5 μM (Peptide 2* of P14, Pepscan: 10 μg/mL (5.45 μM))

| Substance | Percent of maximal response to individual gluten peptides, IFNg ([1]; Subject 2, Max. 116 pg/mL) | Percent of maximal response to individual gluten peptides, IFNg ([1]; Subject 3, Max. 799 pg/mL) | Percent of maximal response to individual gluten peptides, IFNg ([1]; Subject 4, Max. 136 pg/mL) | Percent of maximal response to individual gluten peptides, IFNg ([1]; Subject 6, Max. 72 pg/mL) | Percent of maximal response to individual gluten peptides, IFNg ([1]; Subject 7, Max. 17 pg/mL) | Percent of maximal response to individual gluten peptides, IFNg ([1]; Subject 8, Max. 47 pg/mL) | Percent of maximal response to individual gluten peptides, IFNg ([1]; Subject 9, Max. 67 pg/mL) | Percent of maximal response to individual gluten peptides, IFNg ([1]; Subject 10, Max. 229 pg/mL) | IFNγ WB MAGPIX % max Mean [1] [% max] | cytokine release / immunogenicity of individual peptide [2] | Percent of maximal response to individual gluten peptides, ELISp ([3]; Subject 3, Max. 18 SFU) | Percent of maximal response to individual gluten peptides, ELISp ([3]; Subject 4, Max. 36 SFU) | Percent of maximal response to individual gluten peptides, ELISp ([3]; Subject 8, Max. 17 SFU) | Percent of maximal response to individual gluten peptides, ELISp ([3]; Subject 10, Max. 11 SFU) | IFNγ ELISpot % max Mean [3] [% max] | Percent of maximal response to individual gluten peptides, IP-10 ([4]; Subject 1, Max. 2331 pg/mL) | Percent of maximal response to individual gluten peptides, IP-10 ([4]; Subject 2, Max. 3646 pg/mL) | Percent of maximal response to individual gluten peptides, IP-10 ([4]; Subject 3, Max. 9492 pg/mL) | Percent of maximal response to individual gluten peptides, IP-10 ([4]; Subject 4, Max. 9463 pg/mL) | Percent of maximal response to individual gluten peptides, IP-10 ([4]; Subject 6, Max. 5863 pg/mL) | also measured |
| --- | --- | --- | --- | --- | --- | --- | --- | --- | --- | --- | --- | --- | --- | --- | --- | --- | --- | --- | --- | --- | --- |
| (pE)GQQGYYPTSPQQSG-amide ([pGlu]GQQGYYPTSPQQSG-NH2; SMILES C[C@@H](O)[C@H](NC(=O)[C@@H]1CCCN1C(=O)[C@H](Cc1ccc(O)cc1)NC(=O)[C@H](Cc1ccc(O)cc1)NC(=O)CNC(=O)[C@H](CCC(N)=O)NC(=O)[C@H](CCC(N)=O)NC(=O)CNC(=O)[C@@H]1CCC(=O)N1)C(=O)N[C@@H](CO)C(=O)N1CCC[C@H]1C(=O)N[C@@H](CCC(N)=O)C(=O)N[C@@H](CCC(N)=O)C(=O)N[C@@H](CO)C(=O)NCC(N)=O) [Peptide 10] | 23 % of max | 0 % of max | 0 % of max | 0 % of max | 0 % of max | 0 % of max | 0 % of max | 9 % of max | 4 | weak or not distinguishable from medium alone | 17 % of max | 3 % of max | 0 % of max | 9 % of max | 8 | 0 % of max | 0 % of max | 0 % of max | 0 % of max | 0 % of max | Percent of maximal response to individual gluten peptides, IP-10 ([4]; Subject 7, Max. 2330 pg/mL): 0 % of max; Percent of maximal response to individual gluten peptides, IP-10 ([4]; Subject 10, Max. 8922 pg/mL): 9 % of max; IP-10 WB MAGPIX % max Mean [4]: 1 % max |
| (pE)QPFPEQPEQIIPQQP-amide ([pGlu]QPFPEQPEQIIPQQP-NH2; SMILES CC[C@H](C)[C@H](NC(=O)[C@H](CCC(N)=O)NC(=O)[C@H](CCC(=O)O)NC(=O)[C@@H]1CCCN1C(=O)[C@H](CCC(N)=O)NC(=O)[C@H](CCC(=O)O)NC(=O)[C@@H]1CCCN1C(=O)[C@H](Cc1ccccc1)NC(=O)[C@@H]1CCCN1C(=O)[C@H](CCC(N)=O)NC(=O)[C@@H]1CCC(=O)N1)C(=O)N[C@H](C(=O)N1CCC[C@H]1C(=O)N[C@@H](CCC(N)=O)C(=O)N[C@@H](CCC(N)=O)C(=O)N1CCC[C@H]1C(N)=O)[C@@H](C)CC) [Peptide 12] | 13 % of max | 0 % of max | 0 % of max | 0 % of max | 0 % of max | 0 % of max | 0 % of max | 1 % of max | 2 | weak or absent | 6 % of max | 0 % of max | 6 % of max | 0 % of max | 3 | 11 % of max | 3 % of max | 9 % of max | 5 % of max | 0 % of max | Percent of maximal response to individual gluten peptides, IP-10 ([4]; Subject 5, Max. 9336 pg/mL): 4 % of max; Percent of maximal response to individual gluten peptides, IP-10 ([4]; Subject 7, Max. 2330 pg/mL): 0 % of max; Percent of maximal response to individual gluten peptides, IP-10 ([4]; Subject 8, Max. 4019 pg/mL): 0 % of max; Percent of maximal response to individual gluten peptides, IP-10 ([4]; Subject 9, Max. 8349 pg/mL): 1 % of max; Percent of maximal response to individual gluten peptides, IP-10 ([4]; Subject 10, Max. 8922 pg/mL): 0 % of max; IP-10 WB MAGPIX % max Mean [4]: 3 % max |
